Test system: HGF/MET signaling
Experiment: BM cell response to HGF after exosome pre-treatment: western blot of phospho-S6 kinase and phospho-ERK
Format: cell-based, mice
Conditions: 20 nM, before HGF addition
Description: Mice were sacrificed and BM was isolated by flushing the femur and tibia with staining media (1% BSA in PBS) using a 25G½″ needle (BD) and further disrupting it by pipeting. Cell suspensions were filtered through 70 μm cell strainers (BD) prior to centrifugation. Red blood cells (RBC) from BM suspensions were lysed using ACK Lysis Buffer (Invitrogen). To enrich for progenitors, lineage positive (Lin^+, i.e., CD5, CD45R, CD19, CD11b, Ly6G/C, 7-4, TER119 positive) BM cells were immunomagnetically depleted using the EasySep® Mouse Hematopoietic Progenitor Cell Enrichment Kit (Stem Cell Technologies) as per manufacturer's instructions. For in vitro BM treatment with exosomes, BM cells were flushed as above and cultured in Stem Span (Stem Cell Technologies) for 16 hours in the presence or absence of 20 μg/ml indicated exosomes. For HGF analysis BM cells were then stimulated with 5 ng/ml HGF (Peprotech) for 4 hours and collected for Western blot analysis in RIPA buffer as indicated below by adding phosphatase inhibitors (1 mM Sodium orthovanadate and 5 mM β-Glycerol phosphate). For MET signaling inhibition, cells were incubated with 20 nM Crizotinib (Selleck Bio) 1 hour before HGF stimulation.
Exosomes or cells were lysed with RIPA buffer containing a complete protease inhibitor tablet (Roche). Lysates were cleared by centrifugation at 14,000×g for 20 min. […]

SMILES: C[C@@H](Oc1cc(-c2cnn(C3CCNCC3)c2)cnc1N)c1c(Cl)ccc(F)c1Cl [Crizotinib]
- Phosphorylation of ERK after F10 exosome treatment: blocked the phosphorylation
- Phosphorylation of S6-kinase after F10 exosome treatment: blocked the phosphorylation
